What was measured:
PptT [1] = biological target: T1, PptT (Mycobacterium tuberculosis, UniProt O33336); type: biochemical, M. tuberculosis; conditions: MAS as target carrier protein (4 µM MAS, 2 µM rhodamine CoA), 250 nM PptT
T1 sequence (O33336 1-227): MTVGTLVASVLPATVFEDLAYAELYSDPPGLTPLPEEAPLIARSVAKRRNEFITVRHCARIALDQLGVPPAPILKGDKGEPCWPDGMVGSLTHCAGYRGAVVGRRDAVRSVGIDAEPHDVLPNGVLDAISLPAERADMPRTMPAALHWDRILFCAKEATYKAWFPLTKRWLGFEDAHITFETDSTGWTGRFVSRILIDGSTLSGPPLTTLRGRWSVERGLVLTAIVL

Sfp = biological target: T2, Sfp (Bacillus subtilis, UniProt P39135); assay: Isothermal titration calorimetry of CoA analogs binding to Sfp; parameters: species or system B. subtilis
T2 sequence (P39135 1-224): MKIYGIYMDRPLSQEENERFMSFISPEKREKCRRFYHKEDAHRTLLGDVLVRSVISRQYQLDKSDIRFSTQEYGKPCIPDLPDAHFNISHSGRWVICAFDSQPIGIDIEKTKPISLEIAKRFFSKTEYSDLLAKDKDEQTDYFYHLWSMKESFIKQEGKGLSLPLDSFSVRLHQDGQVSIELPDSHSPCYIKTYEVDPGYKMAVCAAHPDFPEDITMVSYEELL

PptT [2] = biological target: T1, PptT; assay: biochemical; type: binding, M. tuberculosis
HsPPT = conditions: cited from earlier work

For `CN[C@@H](C)[C@H](O)c1ccccc1` [(−)-ephedrine hemisulfate, (−)-ephedrine], the “IC50, PptT, MAS” value (PptT [1]) was “inactive”.

With `CC(C)(COP(=O)(O)OP(=O)(O)OC[C@H]1O[C@@H](n2cnc3c(N)ncnc32)[C@H](O)[C@@H]1OP(=O)(O)O)[C@@H](O)C(=O)NCCC(=O)NCCS` [CoA, coenzyme A] the Kd (Sfp) was 3.4 ± 0.2 µM, the “enthalpy of binding (ΔH), Sfp” value (Sfp; ITC, 16°C) was −12.5 ± 0.15 kcal mol^–1 and the “entropy of binding (TΔS), Sfp” value (Sfp; ITC, 16°C) was −5.07 ± 0.38 kcal mol^–1. For the same compound, the Kd (PptT [2]) was 0.036 ± 0.013 µM, the “enthalpy of binding (ΔH), PptT” value (PptT [2]; ITC, 16°C) was −5.78 ± 0.08 kcal mol^–1 and the “entropy of binding (TΔS), PptT” value (PptT [2]; ITC, 16°C) was 4.14 ± 0.16 kcal mol^–1.

In the case of `N=C1Sc2ccccc2C2=NCCCN12` [PD 404, 182], the “inhibitory activity against HsPPT” value (HsPPT) is given as “no inhibitory activity”.

For `CN=c1nc(-c2ccccc2)n(-c2ccccc2)s1` [SCH-202676], the “inhibitory activity against HsPPT” value (HsPPT) is given as “no inhibitory activity”.

For `Clc1ccc(C(c2ccc(Cl)cc2)n2cc[n+](CC(OCc3ccc(Cl)cc3Cl)c3ccc(Cl)cc3Cl)c2)cc1` (stereo not shown) [calmidazolium Cl, calmidazolium chloride], the “inhibitory activity against HsPPT” value (HsPPT) is given as “no inhibitory activity”.

In the case of `NC(N)=Nc1ccc2[nH]c3c(c2c1)C[C@@]1(O)[C@H]2Cc4ccc(O)c5c4[C@@]1(CCN2CC1CC1)[C@H]3O5.O=C(O)C(F)(F)F.O=C(O)C(F)(F)F` [guanidinyl-naltrindole 2CF3COOH, guanidinyl-naltrindole], the “inhibitory activity against HsPPT” value (HsPPT) is given as “no inhibitory activity”.

For `O=C1c2c(O)ccc(O)c2C(=O)c2c(NCCNCCO)ccc(NCCNCCO)c21` [mitoxantrone 2HCl, mitoxantrone], the “IC50, PptT, MAS” value (PptT [1]) was “inactive”.

In the case of `C[n+]1cc2c3c(ccc2c2ccc4cc5c(cc4c21)OCO5)OCO3` [sanguinarine Cl, sanguinarine chloride], the “inhibitory activity against HsPPT” value (HsPPT) is given as “no inhibitory activity”.

Source: paper PMC4168790 (ACS Chemical Biology, 2014)
